Assay results published in US20180008579A1, “PHARMACEUTICAL COMPOSITION FOR PREVENTING OR TREATING CHRONIC MYELOID LEUKEMIA AND METHOD USING THE SAME” (MEDPACTO INC., priority 2015, published 2018).

What was measured:
[1] = test system: TT-CML affected mouse; assay: Peripheral blood leukocyte number, spleen and cell lineage in drug-administered TT-CML affected mouse; type: in vivo; settings: TEW-7197 2.5 mg/kg/day every three days, oral
Source text: The number of leukocyte in the peripheral blood of the drug-administered TT-CML affected mouse is shown in FIG. 3A (n=5, NS: not significant), a photograph of the spleen thereof is shown in FIG. 3B (bar: 10 mm), and the weight of the spleen thereof is shown in FIG. 3C (n=3). Further, percentages (%) of T cell (detected using anti-CD4 antibody and anti-CD8 antibody), B cell (detected using anti-B220 antibody), and bone marrow cell (detected using anti-Macl antibody and anti-Gr-1 antibody) among the total BCR-ABL1-GFP^+ cells in the peripheral blood of the TEW-7197-administered TT-CML affected mouse are shown in FIG. 3D (n=3, NS: not significant).

[2] = test system: human CML-initiating cells; assay: Colony formation of human CML-initiating cells (CD34+CD38-Lin-) co-cultured with OP-9 stromal cells; type: cell-based; settings: cells of three CML patients, co-culture with OP-9, 3% oxygen; combination compared to single treatment of dasatinib; FIGS. 6A-6C
Experimental: Bone marrow mononuclear cells (Allcells, Cat. No. 06-255, 06-620, and 147742, CA) of three patients with chronic CML were prepared. Bone marrow mononuclear cells were stained with anti-CD34(8G12) antibody (BD Biosciences), anti-CD38(HIT2) antibody (BD Biosciences), anti-CD3(SK7) antibody (BD Biosciences), anti-CD16(3G8) antibody (BD Biosciences), anti-CD19(SJ25C1) antibody (BD Biosciences), anti-CD20([…]) antibody (BD Biosciences), anti-CD14(MfP9) antibody (BD Biosciences), and anti-CD56(NCAM16.2) antibody (BD Biosciences). A mouse antibody cocktail recognizing CD3, CD16, CD19, CD20, CD14 and CD56 was used to identify Lineage^- (Lin^-) cells, and CD34^+CD38^-Lin^- cells were separated. […] A control group was prepared in the same manner, except that DMSO was used. Cells were harvested and washed with PBS, and then cultured in methyl cellulose (Stem cell technologies, GFM3434) to measure colony formation of human CML-initiating cells.

[3] = test system: TT-CML affected mouse; assay: Flow cytometry of GFP/BCR-ABL+ KLS+ and KLS- cells in TT-CML affected mouse; type: in vivo; settings: TEW-7197 2.5 mg/kg/day every three days, oral, 30 days, peripheral blood
Experimental: GFP/BCR-ABL^+c-Kit^+Lineage^−Sca-1^+(KLS^+) cells (bold box) and c-Kit^+Lineage^−Sca-1^− (KLS^−) cells (dotted box) in the peripheral blood were analyzed by flow cytometry, and the results are shown in FIG. 4A.

[4] = test system: TKI-resistant T315I TT-CML affected mouse; assay: Flow cytometry of T315I BCR-ABL-GFP+ KLS+ and KLS- cells in TKI-resistant T315I TT-CML affected mouse; type: in vivo; settings: ponatinib 15 mg/kg/day, TEW-7197 2.5 mg/kg/day every three days, oral, 30 days; peripheral blood; FIG. 5C
Experimental: T315I BCR-ABL-GFP^+KLS^+ cells (bold box) and KLS^− cells (dotted box) in the peripheral blood were analyzed by flow cytometry, and the results are shown in FIG. 5A.

Cc1cccc(-c2[nH]c(CNc3ccccc3F)nc2-c2ccc3ncnn3c2)n1 [TEW-7197, N-((4-([1,2,4]triazolo[1,5-a]pyridin-6-yl)-5-(6-methylpyridin-2-yl)-1H-imidazol-2-yl)methyl)-2-fluoroaniline]
differentiation of bone marrow cells among the BCR-ABL1-GFP+ cells in peripheral blood ([1]; FIG. 3D): did not affect differentiation of bone marrow cells | number of leukocyte in the peripheral blood ([1]; dasatinib 5 mg/kg/day, about 30 days, compared to vehicle, FIG. 3A): increased | splenomegaly (spleen weight) ([1]; dasatinib 5 mg/kg/day, about 30 days, compared to vehicle, FIGS. 3B, 3C): promoted | colony formation of human CML-initiating cells [2]: significantly inhibited colony formation | percentage of KLS+ cells among BCR-ABL1-GFP+ CML cells ([3]; FIG. 4C): remarkably decreased | percentage of KLS- cells among BCR-ABL1-GFP+ CML cells ([3]; dasatinib 5 mg/kg/day, FIG. 4B): remarkably decreased | percentage of T315I BCR-ABL-GFP+KLS+ cells [4]: remarkably decreased
